From patent US7453010B2, “Phenylcyclohexylpropanolamine derivatives, preparation and therapeutic application thereof” (Sanofi Aventis, priority 2002, dated 2008) come the findings set out here.

Molecules are shown by their SMILES.

On to `CS(=O)(=O)Nc1cc(OC[C@@H](O)CN[C@H]2CC[C@H](c3ccc(O)cc3)CC2)ccc1O` [Compound 1, trans-N-{2-Hydroxy-5-[((2S)-2-hydroxy-3-{[4-(4-hydroxyphenyl)cyclohexyl]amino}propyl)oxy]phenyl}methanesulfonamide], for which the melting point (as a rule, the temperature, or range, at which the solid turns liquid) was in the range of 85 to 90 °C.

For the molecule `CCOC(=O)COc1ccc([C@H]2CC[C@H](NC[C@H](O)COc3ccc(O)c(NS(C)(=O)=O)c3)CC2)cc1` [Compound 2, Ethyl trans-(4-{4-[((2S)-2-hydroxy-3-{4-hydroxy-3-[(methylsulfonyl)amino]phenoxy}propyl)amino]cyclohexyl}phenoxy)acetate], the melting point was 60 to 70 °C.
